Measurements as given in ChEMBL document CHEMBL5543147, “Discovery and Characterization of a Novel Cereblon-Recruiting PRC1 Bridged PROTAC Degrader” (J Med Chem, 2024).
Active and inactive are the calls of the source. The calls are words filed in the database; no cut-off is given here.

Assays:
[1] = target: T1, Protein cereblon/Polycomb protein EED (Homo sapiens, UniProt O75530+Q96SW2); assay: PROTAC activity at CRBN/EED in human PC-3M cells assessed as degradation of EED protein expression at 0.2 to 5 uM incubated for 24 hrs by Western blotting analysis; type: cell-based; conditions: dose 0.2-5 µM
K562 [2] = assay: Antiproliferative activity against human K562 cells assessed as increase in HoxA mRNA expression at 10 uM incubated for 24 hrs by RT-qPCR analysis; type: functional, cell-based
MDA-MB-468 [3] = assay: Induction of PRC2 degradation in human MDA-MB-468 cells assessed as reduction of H3K27me3 chromatin mark at 0.2 to 5 uM incubated for 24 hrs by Western blotting analysis; type: cell-based; conditions: dose 0.2-5 µM
[4] = target: von Hippel-Lindau disease tumor suppressor/Polycomb protein EED (Homo sapiens, UniProt O75530+P40337); assay: PROTAC activity at VHL/EED in human KARPAS-422 cells assessed as degradation of EED protein expression by Western blotting analysis; type: cell-based
[5] = target: T2, von Hippel-Lindau disease tumor suppressor/Polycomb complex protein BMI-1 (Homo sapiens) (UniProt P40337+P35226); assay: PROTAC activity at […] in human K562 cells assessed as degradation of BMI1 protein expression at 1 to 10 uM incubated for 24 hrs by Western blotting analysis; type: cell-based; conditions: dose 1-10 µM
[6] = target: T3, Protein cereblon/E3 ubiquitin-protein ligase RING2 (Homo sapiens, UniProt Q96SW2+Q99496); assay: PROTAC activity at CRBN/RING1B in human K562 cells assessed as degradation of RING1B protein expression at 1 to 10 uM incubated for 24 hrs by Western blotting analysis; type: cell-based; conditions: dose 1-10 µM
K562 [7] = assay: Antiproliferative activity against human K562 cells assessed as cell growth inhibition incubated for 7 days by WST-8 assay; type: functional; conditions: time 7.0 day
[8] = target: T4, Protein cereblon/Histone-lysine N-methyltransferase EZH2 (Homo sapiens) (UniProt Q15910+Q96SW2); assay: PROTAC activity at CRBN/EZH2 in human MDA-MB-468 cells assessed as degradation of EZH2 protein expression at 0.2 to 5 uM incubated for 24 hrs by Western blotting analysis; type: cell-based; conditions: dose 0.2-5 µM
K562 [9] = assay: Induction of PRC2 degradation in human K562 cells assessed as reduction of H3K27me3 chromatin mark at 1 to 10 uM incubated for 24 hrs by Western blotting analysis; type: cell-based; conditions: dose 1-10 µM
[10] = target: T5, Protein cereblon/Polycomb protein SUZ12 (Homo sapiens) (UniProt Q15022+Q96SW2); assay: PROTAC activity at CRBN/SUZ12 in human PC-3M cells assessed as degradation of SUZ12 protein expression at 0.2 to 5 uM incubated for 24 hrs by Western blotting analysis; type: cell-based; conditions: dose 0.2-5 µM
[11] = target: T2, von Hippel-Lindau disease tumor suppressor/Polycomb complex protein BMI-1 (Homo sapiens); assay: PROTAC activity at […] in human PC-3M cells assessed as degradation of BMI1 protein expression at 0.2 to 5 uM incubated for 24 hrs by Western blotting analysis; type: cell-based; conditions: dose 0.2-5 µM
MDA-MB-468 [12] = assay: Induction of PRC1 degradation in human MDA-MB-468 cells assessed as reduction of H2AK119ub chromatin mark at 0.2 to 5 uM incubated for 24 hrs by Western blotting analysis; type: cell-based; conditions: dose 0.2-5 µM
[13] = target: T4, Protein cereblon/Histone-lysine N-methyltransferase EZH2 (Homo sapiens); assay: PROTAC activity at CRBN/EZH2 in human PC-3M cells assessed as degradation of EZH2 protein expression at 0.2 to 5 uM incubated for 24 hrs by Western blotting analysis; type: cell-based; conditions: dose 0.2-5 µM
K562 [14] = assay: Antiproliferative activity against human K562 cells assessed as increase in HoxD mRNA expression at 10 uM incubated for 24 hrs by RT-qPCR analysis; type: functional, cell-based
[15] = target: T1, Protein cereblon/Polycomb protein EED; assay: PROTAC activity at CRBN/EED in human MDA-MB-468 cells assessed as degradation of EED protein expression at 0.2 to 5 uM incubated for 24 hrs by Western blotting analysis; type: cell-based; conditions: dose 0.2-5 µM
[16] = target: T3, Protein cereblon/E3 ubiquitin-protein ligase RING2; assay: PROTAC activity at CRBN/RING1B in human PC-3M cells assessed as degradation of RING1B protein expression at 0.2 to 5 uM incubated for 24 hrs by Western blotting analysis; type: cell-based; conditions: dose 0.2-5 µM
PC-3M [17] = assay: Induction of PRC1 degradation in human PC-3M cells assessed as reduction of H2AK119ub chromatin mark at 0.2 to 5 uM incubated for 24 hrs by Western blotting analysis; type: cell-based; conditions: dose 0.2-5 µM
[18] = target: T5, Protein cereblon/Polycomb protein SUZ12 (Homo sapiens); assay: PROTAC activity at CRBN/SUZ12 in human MDA-MB-468 cells assessed as degradation of SUZ12 protein expression at 0.2 to 5 uM incubated for 24 hrs by Western blotting analysis; type: cell-based; conditions: dose 0.2-5 µM
[19] = target: T3, Protein cereblon/E3 ubiquitin-protein ligase RING2; assay: PROTAC activity at CRBN/RING1B in human MDA-MB-468 cells assessed as degradation of RING1B protein expression at 0.2 to 5 uM incubated for 24 hrs by Western blotting analysis; type: cell-based; conditions: dose 0.2-5 µM
[20] = target: T2, von Hippel-Lindau disease tumor suppressor/Polycomb complex protein BMI-1 (Homo sapiens); assay: PROTAC activity at […] in human MDA-MB-468 cells assessed as degradation of BMI1 protein expression at 0.2 to 5 uM incubated for 24 hrs by Western blotting analysis; type: cell-based; conditions: dose 0.2-5 µM
PC-3M [21] = assay: Induction of PRC2 degradation in human PC-3M cells assessed as reduction of H3K27me3 chromatin mark at 0.2 to 5 uM incubated for 24 hrs by Western blotting analysis; type: cell-based; conditions: dose 0.2-5 µM
[22] = target: von Hippel-Lindau disease tumor suppressor/Histone-lysine N-methyltransferase EZH2 (Homo sapiens, UniProt Q15910+P40337); assay: PROTAC activity at VHL/EZH2 in human KARPAS-422 cells assessed as degradation of EZH2 protein expression by Western blotting analysis; type: cell-based
Chain of von Hippel-Lindau disease tumor suppressor/Histone-lysine N-methyltransferase EZH2 (Q15910 whole entry): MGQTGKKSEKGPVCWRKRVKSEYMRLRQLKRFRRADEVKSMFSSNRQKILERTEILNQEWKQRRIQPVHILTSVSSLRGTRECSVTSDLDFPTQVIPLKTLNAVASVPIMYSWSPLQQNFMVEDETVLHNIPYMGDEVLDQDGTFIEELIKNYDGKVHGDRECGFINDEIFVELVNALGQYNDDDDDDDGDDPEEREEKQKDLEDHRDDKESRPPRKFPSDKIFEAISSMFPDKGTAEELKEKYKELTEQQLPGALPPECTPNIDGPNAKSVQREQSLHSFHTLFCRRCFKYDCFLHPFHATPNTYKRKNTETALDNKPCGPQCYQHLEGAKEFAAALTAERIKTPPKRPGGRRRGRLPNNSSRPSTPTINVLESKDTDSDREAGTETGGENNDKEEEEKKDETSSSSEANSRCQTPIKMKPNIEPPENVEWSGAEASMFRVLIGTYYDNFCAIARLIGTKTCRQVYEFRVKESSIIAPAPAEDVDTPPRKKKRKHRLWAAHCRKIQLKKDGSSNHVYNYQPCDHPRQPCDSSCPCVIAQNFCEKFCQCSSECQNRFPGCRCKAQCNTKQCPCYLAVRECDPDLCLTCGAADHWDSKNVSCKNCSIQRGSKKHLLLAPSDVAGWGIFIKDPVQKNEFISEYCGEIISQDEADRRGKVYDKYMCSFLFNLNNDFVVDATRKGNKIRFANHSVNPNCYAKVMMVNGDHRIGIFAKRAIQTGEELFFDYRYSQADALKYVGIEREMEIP
Chain of von Hippel-Lindau disease tumor suppressor/Histone-lysine N-methyltransferase EZH2 (P40337 whole entry): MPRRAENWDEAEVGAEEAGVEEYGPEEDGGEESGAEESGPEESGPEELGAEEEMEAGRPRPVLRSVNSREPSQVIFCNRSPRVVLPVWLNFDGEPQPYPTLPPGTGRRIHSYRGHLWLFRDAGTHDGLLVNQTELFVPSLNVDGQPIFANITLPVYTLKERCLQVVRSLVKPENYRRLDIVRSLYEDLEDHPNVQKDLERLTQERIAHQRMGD

T2 sequence (P35226 whole entry, looked up): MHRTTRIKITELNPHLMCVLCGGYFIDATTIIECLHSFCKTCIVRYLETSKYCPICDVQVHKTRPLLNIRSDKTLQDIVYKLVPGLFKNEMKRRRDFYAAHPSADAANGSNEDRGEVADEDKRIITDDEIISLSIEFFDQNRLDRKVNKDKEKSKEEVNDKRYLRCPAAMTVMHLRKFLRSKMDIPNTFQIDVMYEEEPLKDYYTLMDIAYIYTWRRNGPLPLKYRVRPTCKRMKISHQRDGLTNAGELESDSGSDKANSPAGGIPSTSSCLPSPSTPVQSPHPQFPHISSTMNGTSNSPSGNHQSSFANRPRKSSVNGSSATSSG
T2 sequence (P40337 whole entry, looked up): as the sequence (P40337 whole entry) above
T3 sequence (Q96SW2 whole entry): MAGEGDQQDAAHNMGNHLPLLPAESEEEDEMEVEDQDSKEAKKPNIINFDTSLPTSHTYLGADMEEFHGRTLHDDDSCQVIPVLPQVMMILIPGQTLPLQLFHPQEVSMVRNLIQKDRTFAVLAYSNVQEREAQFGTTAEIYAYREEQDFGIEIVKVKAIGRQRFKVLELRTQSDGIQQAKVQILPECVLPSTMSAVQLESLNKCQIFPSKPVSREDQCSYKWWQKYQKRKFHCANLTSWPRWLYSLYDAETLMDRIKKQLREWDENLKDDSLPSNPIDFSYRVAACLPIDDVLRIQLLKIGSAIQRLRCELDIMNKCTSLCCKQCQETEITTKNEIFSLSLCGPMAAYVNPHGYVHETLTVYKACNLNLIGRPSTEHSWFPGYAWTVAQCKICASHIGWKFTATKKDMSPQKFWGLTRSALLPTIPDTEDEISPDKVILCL
T3 sequence (Q99496 2-336 partner limits assumed): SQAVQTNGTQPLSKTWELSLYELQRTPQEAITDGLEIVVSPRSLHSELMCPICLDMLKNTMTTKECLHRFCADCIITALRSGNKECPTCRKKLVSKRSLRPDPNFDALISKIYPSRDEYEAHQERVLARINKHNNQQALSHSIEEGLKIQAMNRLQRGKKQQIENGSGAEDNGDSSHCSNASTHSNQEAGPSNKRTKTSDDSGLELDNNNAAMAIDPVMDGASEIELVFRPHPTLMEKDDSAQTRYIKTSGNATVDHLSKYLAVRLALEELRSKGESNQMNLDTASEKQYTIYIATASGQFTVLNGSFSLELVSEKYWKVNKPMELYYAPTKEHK
T5 sequence (Q15022 whole entry, looked up): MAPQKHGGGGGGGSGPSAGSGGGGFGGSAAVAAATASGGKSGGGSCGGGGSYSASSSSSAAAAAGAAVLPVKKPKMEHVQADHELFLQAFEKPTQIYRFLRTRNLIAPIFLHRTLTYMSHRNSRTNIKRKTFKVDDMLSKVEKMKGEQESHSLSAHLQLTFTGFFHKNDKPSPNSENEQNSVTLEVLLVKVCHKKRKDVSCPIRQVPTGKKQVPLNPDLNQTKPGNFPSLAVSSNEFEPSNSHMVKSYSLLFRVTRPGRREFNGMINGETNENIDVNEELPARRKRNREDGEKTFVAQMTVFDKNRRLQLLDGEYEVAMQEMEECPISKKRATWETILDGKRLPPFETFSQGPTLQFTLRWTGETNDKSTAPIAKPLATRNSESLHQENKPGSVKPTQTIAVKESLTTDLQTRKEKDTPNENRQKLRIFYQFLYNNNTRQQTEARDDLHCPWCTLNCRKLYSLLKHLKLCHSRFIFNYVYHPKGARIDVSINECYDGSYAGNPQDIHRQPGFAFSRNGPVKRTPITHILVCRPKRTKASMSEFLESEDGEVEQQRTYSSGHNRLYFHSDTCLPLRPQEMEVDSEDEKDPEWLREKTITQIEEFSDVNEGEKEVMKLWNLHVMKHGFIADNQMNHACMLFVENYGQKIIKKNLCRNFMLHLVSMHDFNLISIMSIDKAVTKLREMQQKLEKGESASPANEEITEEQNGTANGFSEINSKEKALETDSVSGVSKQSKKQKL
T5 sequence (Q96SW2 whole entry, looked up): as the sequence (Q96SW2 whole entry) above
T4 sequence (Q15910 whole entry, looked up): as the sequence (Q15910 whole entry) above
T4 sequence (Q96SW2 whole entry, looked up): as the sequence (Q96SW2 whole entry) above
T1 sequence (O75530 2-441 limits assumed): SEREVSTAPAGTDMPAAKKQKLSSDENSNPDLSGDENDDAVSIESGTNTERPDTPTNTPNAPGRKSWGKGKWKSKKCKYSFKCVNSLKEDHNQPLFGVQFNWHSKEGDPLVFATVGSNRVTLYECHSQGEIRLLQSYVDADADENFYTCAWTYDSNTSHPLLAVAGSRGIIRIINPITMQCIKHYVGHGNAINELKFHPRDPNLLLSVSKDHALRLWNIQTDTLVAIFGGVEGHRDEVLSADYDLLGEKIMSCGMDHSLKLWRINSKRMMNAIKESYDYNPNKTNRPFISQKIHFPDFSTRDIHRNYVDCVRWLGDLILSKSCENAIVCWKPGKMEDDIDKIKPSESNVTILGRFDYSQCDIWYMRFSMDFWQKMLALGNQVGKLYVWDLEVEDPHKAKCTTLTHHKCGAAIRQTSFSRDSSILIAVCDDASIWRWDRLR
T1 sequence (Q96SW2 whole entry partner): as the sequence (Q96SW2 whole entry) above
Chain of von Hippel-Lindau disease tumor suppressor/Polycomb protein EED (O75530 whole entry): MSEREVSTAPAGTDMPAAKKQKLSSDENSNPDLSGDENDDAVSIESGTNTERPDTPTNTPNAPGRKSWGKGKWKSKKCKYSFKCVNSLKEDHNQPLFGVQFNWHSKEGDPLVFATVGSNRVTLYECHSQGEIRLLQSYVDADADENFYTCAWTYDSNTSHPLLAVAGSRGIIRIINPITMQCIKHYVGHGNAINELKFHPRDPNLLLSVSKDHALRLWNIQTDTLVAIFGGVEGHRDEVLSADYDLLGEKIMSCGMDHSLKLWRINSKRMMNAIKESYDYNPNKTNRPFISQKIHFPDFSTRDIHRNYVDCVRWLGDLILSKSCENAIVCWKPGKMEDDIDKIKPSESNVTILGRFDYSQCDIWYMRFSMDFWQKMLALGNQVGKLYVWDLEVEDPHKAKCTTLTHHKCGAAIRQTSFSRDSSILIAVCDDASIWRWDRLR
Chain of von Hippel-Lindau disease tumor suppressor/Polycomb protein EED (P40337 whole entry): as the sequence (P40337 whole entry) above

Activity [1]: Active
DC50 [4]: < 120 nM
Activity [5]: inactive
Activity [6]: inactive
Activity [8]: Active
Activity [10]: Active
Activity [11]: inactive
Activity [13]: Active
Activity [15]: Active
Activity [16]: inactive
Activity [18]: Active
Activity [19]: inactive
Activity [20]: inactive
DC50 [22]: < 120 nM
Structure (SMILES): Cc1nc(CCC(=O)NCCOc2ccc(OCC(=O)N[C@H](C(=O)N3C[C@H](O)C[C@H]3C(=O)NCc3ccc(-c4scnc4C)cc3)C(C)(C)C)cc2)ccc1-c1cnc(NCc2c(F)ccc3c2CCO3)n2cnnc12
Activity (K562 [2]): inactive
Activity (MDA-MB-468 [3]): Active
Activity (K562 [7]): inactive
Activity (K562 [9]): Active
Activity (MDA-MB-468 [12]): inactive
Activity (K562 [14]): inactive
Activity (PC-3M [17]): inactive
Activity (PC-3M [21]): Active
